Laboratory results taken from patent US20140142128A1, “METHODS OF TREATING A DISEASE OR DISORDER ASSOCIATED WITH BRUTON'S TYROSINE KINASE” (Celgene Avilomics Research, Inc., priority 2012, published 2014).

What was measured:
[1] = test system: Btk responsive site (Tyr1217) on PLCγ2; assay: PLCγ2 phosphorylation in Ramos cells; type: cell-based; conditions: human Burkitt lymphoma cell line, read-out: EC50, inhibition of phosphorylation of the Btk responsive site (Tyr1217) on PLCγ2
relapsed/refractory CLL = conditions: lenalidomide 25 mg for 21 days of every 28-day cycle; cited from earlier work

| SMILES | EC50 [1] | Clinical responses (CR or PR) in subjects refractory to fludarabine (relapsed/refractory CLL) | Clinical responses (CR or PR) in subjects with del (11)(q23) and/or del (17)(p13.1) adverse cytogenetics (relapsed/refractory CLL) |
| --- | --- | --- | --- |
| C=CC(=O)Nc1cccc(Nc2nc(Nc3ccc(OCCOC)cc3)ncc2F)c1 [Compound 1, N-(3-(5-fluoro-2-(4-(2-methoxyethoxy)phenylamino)pyrimidin-4-ylamino)phenyl)acrylamide] | 1 to 10 nM | – | – |
| Nc1cccc2c1CN(C1CCC(=O)NC1=O)C2=O (stereo not drawn) [lenalidomide, 3-(4-amino-1-oxo-1,3-dihydro-2H-isoindol-2-yl)piperidine-2,6-dione] | – | 30% | 47% |
